# Laboratory results reported in US20090017486A1, “METHOD AND TEST KIT FOR THE IDENTIFICATION OF COMPOUNDS SPECIFICALLY MODULATING THE ACTION OF CORTICAL AXO-AXONIC CELLS” (priority 2005, published 2009).
# Entries after “also recorded” stand apart in the source; their conditions may differ.
# Key:
# [1] = tested on: pyramidal cell (soma and axon initial segment); assay: Pressure application of GABA to soma and axon initial segment of pyramidal cells; format: cell-based, rat
# Method: (§1) For perforated patch experiments, 3 mg/ml gramicidin (Sigma) was used, dissolved in DMSO and diluted to a final concentration of 9 μg/ml in the low [Cl^−]in pipette solution. […] Membrane potentials were corrected for junction potentials. […] Pressure waves (˜5 μm in diameter) and pipette positions on the soma and along the axon initial segment (30-40 μm from the soma) were imaged and the postsynaptic cell membrane was ruptured by gentle suction pulses to allow biocytin labelling and post-hoc comparison of pipette positions with light microscopic reconstructions. Cells were excluded from analysis if basal dendrites were closer than ˜30 μm to the pressure pipette and/or initial segment.
# To characterize the interaction of axo-axonic cells (AACs) and their postsynaptic neurons, first the reversal potential of GABAergic inputs arriving to the perisomatic region of pyramidal cells was determined, elicited by AACs and basket cells in layers 2/3 of rat somatosensory cortex in vitro (FIG. 1). Paired recordings of presynaptic interneurons and postsynaptic pyramidal cells were performed using the gramicidin perforated patch placed onto the axon hillock between the soma and the initial segment. […] AACs were identified based on light microscopic reconstructions and analysis showing axonal candles or cartridges specific to this cell type [Szentagothai and Arbib (1974); Somogyi (1977)]
# [2] = tested on: human axo-axonic cell; settings: gabazine 20 μM
# Method: Anaesthesia was induced with intravenous midazolam and fentanyl (0.03 mg/kg and 1-2 μg/kg, respectively). A bolus dose of propofol (1-2 mg/kg) was administered intravenously. To facilitate endotracheal intubation, the patient recieved 0.5 mg/kg rocuronium. After 120 seconds, the trachea was intubated and the patient was ventilated with a mixture of O2—N2O at a ratio of 1:2. Anaesthesia was maintained with sevoflurane at MAC volume of 1.2-1.5. Slices were incubated at room temperature for 1 hour in a solution composed of 130 mM NaCl, 3.5 mM KCl, 1 mM NaH2PO4, 24 mM NaHCO3, 1 mM CaCl2, 3 mM MgSO4 and 10 mM D(+)-glucose, saturated with 95% O2 and 5% CO2. The solution used during recordings differed only in that it contained 3 mM CaCl2 and 1.5 mM MgSO4. Recordings were obtained at ˜35° C. from up to four concomitantly recorded cells visualized in layer 2/3 by infrared differential interference contrast videomicroscopy (Olympus BX60WI microscope, Hamamatsu CCD camera, Luigs & Neumann Infrapatch set-up and two HEKA EPC 10/double patch-clamp amplifiers). Signals were filtered at 8 kHz, digitized at 16 kHz and analyzed with PULSE software (HEKA). Micropipettes (5-7 MW) were filled with three types of solutions. […] Access resistance was continuously monitored throughout perforated patch experiments to check membrane rupture. […]
# [3] = tested on: axo-axonic cells (AACs) and postsynaptic neurons, layer 2/3 somatosensory cortex slices; assay: Multiple whole-cell recordings of synaptic event sequences triggered by AACs in rat cortical slices; format: cell-based
# Method: as §1
# [4] = gabazine 20 μM, low [Cl−]in, reversible on washout
smiles,measurement,setting,value
"NCCCC(=O)O [GABA, gamma-aminobutyric acid]","reversal potential of GABA response, soma","[1]; GABA 1 mM pressure application to soma, perforated patch, n=7",−71.2±2.7 mV
same,trials with spikes triggered below somatic threshold potential,"[1]; GABA to axon initial segment, high [Cl−]in, whole cell mode, n=4 cells",7±3 % of trials
same,threshold potential of spikes triggered by GABA applied to axon initial segment,"[1]; high [Cl−]in intracellular solution, whole cell mode, n=4 cells",−64.2±2.8 mV
same,triggering short latency spikes from hyperpolarized membrane potentials,"[1]; pressure application of GABA to axon initial segment, high [Cl−]in",not effective
COc1ccc(-c2ccc(=N)n(CCCC(=O)O)n2)cc1 [gabazine],effect on disynaptic EPSPs and downstream spikes,[2],blocked
same,effect on disynaptic EPSPs triggered by AACs,[3]; [4],blocked
same,effect on monosynaptic (unitary) IPSPs,[3]; [4],blocked
NS(=O)(=O)c1cccc2c1c([N+](=O)[O-])cc1nc(O)c(O)nc12 [NBQX],effect on unitary IPSP,[3]; NBQX 10 μM,no effect
same,effect on disynaptic EPSPs triggered by AACs,"[3]; NBQX 10 μM, recovery upon washout",blocked; also recorded: reversibly eliminated
